# Experimental data reported in article PMC4942689, “Deciphering the function of the CNGB1b subunit in olfactory CNG channels” (Scientific Reports, 2016).
# What was measured:
# CNGA2RE:B1b = biological target: T1, CNGA2RE:B1b (Rattus norvegicus, UniProt A0A8I5ZN27+Q00195, R538E); experiment: Ligand binding, confocal patch-clamp fluorometry; set-up: key to Ligand binding to CNGB1b: +: ligand binding to the respective modulatory subunits was either observed or not; −: ligand binding to the respective modulatory subunits was either observed or not; conditions: for Ligand binding to CNGB1b: construct CNGA2RE:B1b
# T1 construct: expressed in transfected cells; host or cells: Xenopus laevis oocytes (cRNA injection), excised patches
# Source text: (§1) The channels to be studied were expressed in Xenopus oocytes. We first tested the subunit composition in our channels when coexpressing different combinations of subunits by single-channel recordings. For CNGA2:A4, CNGA2:B1b and CNGA2:A4:B1b channels we exclusively obtained the specific and easily distinguishable single-channel activity reported earlier when injecting respective amounts of RNA[7][13]. We therefore assumed that the channels formed had always the expected subunit composition. The specific binding of cyclic nucleotides and the activation of the CNG channels were measured in parallel by means of confocal patch-clamp fluorometry in excised patches, using fluorescent cyclic nucleotide derivatives. The method has been described previously.
# To study ligand binding to the CNGB1b subunit selectively, the binding domain of the CNGA2 subunits was disabled by either the point mutation R538E (red crosses in the cartoons) or T539M (blue crosses in the cartoons)[13][20]. […] To this end, CNGB1b was coexpressed with CNGA2RE.
# (§2) The ligand binding was measured in macropatches by patch-clamp fluorometry[41][42] combined with confocal microscopy. […] Recordings were performed with an LSM 510 or 710 confocal microscope (Zeiss, Jena, Germany) and were triggered by the ISO3 software (MFK, Niedernhausen, Germany). To distinguish between the fluorescence of the unbound ligands from that of the bound ligands, a second dye, DY647 (Dyomics, Jena, Germany), was added to the bath solution. The 543-nm and 633-nm lines of a He-Ne laser were used to excite fcAMP/fcGMP and DY647, respectively. The method of confocal patch-clamp fluorometry has been described in detail previously.
# CNGA2:A4:B1b channels = biological target: T2, CNGA2:A4:B1b channels (Rattus norvegicus, UniProt A0A8I5ZN27+Q00195+Q64359); experiment: Concentration-activation relationship, inside-out patch-clamp; type: biochemical
# T2 construct: expressed in transfected cells; host or cells: Xenopus laevis oocytes (cRNA injection 2:1:1), excised inside-out patches
# Method: (§3) Patch-clamp experiments were performed using an Axopatch 200B amplifier (Molecular Devices LLC, CA, U.S.A.) in the inside-out configuration. The patch pipettes for recording of macroscopic currents were pulled from borosilicate glass tubing (outer diameter 2.0 mm, inner diameter 1.0 mm; Hilgenberg GmbH, Germany). The initial resistance was 0.7–1.3 MΩ. The patches were formed as pushed inside-out patches. […] Cyclic nucleotide concentration jumps were performed using a double-barreled glass pipette mounted on a piezo-driven device. Intracellular (bath) and extracellular (pipette) solutions contained (mM) 150 KCl, 1 EGTA, 5 Hepes, pH = 7.4 with KOH. […] Currents in the absence of the cyclic nucleotide were subtracted. All patches included in this study were first tested for channel expression in the presence of a saturating ligand concentration. Only patches with large current, i.e. a large number of channels, were included in our statistics. The currents were measured at +10 mV or, if mentioned, at +100 mV.
# Fits of equations to data points were performed with the 8.1G® software (OriginLab Corporation, Northampton, U.S.A.). Concentration-activation relationships were obtained by relating the actual current amplitude, I, to the maximum current amplitude elicited by a saturating concentration of ligand, Imax, and plotting this ratio as function of the ligand concentration, x. The concentration-activation data were fitted using the Hill equation
# where EC50 is the ligand concentration of half maximum effect and H the Hill coefficient.
# In fHcAMP the dye DY547 is coupled to
# (b) Concentration-activation relationships of the CNGA2:A4:B1b channels activated by either
# The currents were recorded […]
# CNGA2RE:A4RE:B1bRE [1] = biological target: T3, CNGA2RE:A4RE:B1bRE (Rattus norvegicus, UniProt A0A8I5ZN27+Q00195+Q64359, R1106E/R430E/R538E); experiment: Channel activation during confocal patch-clamp fluorometry; type: biochemical; conditions: 2 μM fHcAMP; binding domain in CNGB1b also disabled
# T3 construct: expressed in transfected cells; host or cells: Xenopus laevis oocytes (cRNA injection), excised inside-out patches
# Method: (§4) To verify the hypothesis that the CNGB1b subunit in CNGA2:A4:B1b channels binds cyclic nucleotides, we coexpressed CNGB1b with CNGA4RE and either CNGA2RE or CNGA2TM and measured ligand binding in the presence of 10 μM fcGMP. […] To verify the specificity of the binding to the CNGB1b subunit in these heterotetrameric channels, we coexpressed the CNGB1bRE subunit with CNGA2RE and CNGA4RE.
# Figure 2 In a CNGA2:A4 background the CNGB1b subunit binds both fcGMP and fHcAMP and activates the channel. (a) Binding of fcGMP to the CNGB1b subunit evokes channel activation. Binding of fcGMP to CNGB1b was observed when coexpressed with either CNGA2RE:A4RE or CNGA2TM:A4RE (upper diagram). […] (b) Binding of fHcAMP to CNGB1b was observed when coexpressed with both CNGA2RE and CNGA4RE. When disabling the binding domain of CNGB1b, the fluorescence intensity was nearly abolished. Correspondingly, CNGA2RE:A4RE:B1b channels were activated by the ligand only when the CNGB1b binding site was available.
# as §3, §2
# CNGA2RE:A4RE:B1b [2] = biological target: T4, CNGA2RE:A4RE:B1b (Rattus norvegicus, UniProt A0A8I5ZN27+Q00195+Q64359, R430E/R538E); experiment: Ligand binding, confocal patch-clamp fluorometry; set-up: key to Ligand binding to CNGA4 / Ligand binding to CNGB1b: +: ligand binding to the respective modulatory subunits was either observed or not; −: ligand binding to the respective modulatory subunits was either observed or not
# T4 construct: expressed in transfected cells; host or cells: Xenopus laevis oocytes (cRNA injection), excised inside-out patches
# Source text: as §1, §4, §2
# CNGA2RE:A4RE:B1bRE [3] = biological target: T3, CNGA2RE:A4RE:B1bRE; experiment: Ligand binding, confocal patch-clamp fluorometry; set-up: key to Ligand binding to CNGA4 / Ligand binding to CNGB1b: +: ligand binding to the respective modulatory subunits was either observed or not; −: ligand binding to the respective modulatory subunits was either observed or not
# Source text: as §1, §4, §2
# CNGA2RE:A4RE:B1b [4] = biological target: T4, CNGA2RE:A4RE:B1b; experiment: Concentration-activation relationship and activation by fluorescent ligands, patch-clamp; type: biochemical; conditions: 2 μM fHcAMP; of the saturating activation measured with 4 mM cGMP
# Method: as §3, with “In order to determine the apparent affinity of the modulatory subunits in heterotetrameric CNGA2:A4:B1b channels for cGMP, we coexpressed each of them with disabled neighbored subunits, generating themselves activation effects only at much higher ligand concentrations. In case of two well-separated current components, this would allow us to determine the EC50 value for the CNGB1b and CNGA4 subunit in functional heterotetrameric channels. Patch-clamp” for “Patch-clamp”, “The initial resistance was 0.7–1.3 MΩ.” left out, “mV. Fits of equations to data points were performed with the 8.1G® software (OriginLab Corporation, Northampton, U.S.A.). Concentration-activation relationships were obtained by relating the actual current amplitude, I, to the maximum current amplitude elicited by a saturating concentration of ligand, Imax, and plotting this ratio as function of the ligand concentration, x.” for “mV.”
# T2 sequence (Q00195 whole entry): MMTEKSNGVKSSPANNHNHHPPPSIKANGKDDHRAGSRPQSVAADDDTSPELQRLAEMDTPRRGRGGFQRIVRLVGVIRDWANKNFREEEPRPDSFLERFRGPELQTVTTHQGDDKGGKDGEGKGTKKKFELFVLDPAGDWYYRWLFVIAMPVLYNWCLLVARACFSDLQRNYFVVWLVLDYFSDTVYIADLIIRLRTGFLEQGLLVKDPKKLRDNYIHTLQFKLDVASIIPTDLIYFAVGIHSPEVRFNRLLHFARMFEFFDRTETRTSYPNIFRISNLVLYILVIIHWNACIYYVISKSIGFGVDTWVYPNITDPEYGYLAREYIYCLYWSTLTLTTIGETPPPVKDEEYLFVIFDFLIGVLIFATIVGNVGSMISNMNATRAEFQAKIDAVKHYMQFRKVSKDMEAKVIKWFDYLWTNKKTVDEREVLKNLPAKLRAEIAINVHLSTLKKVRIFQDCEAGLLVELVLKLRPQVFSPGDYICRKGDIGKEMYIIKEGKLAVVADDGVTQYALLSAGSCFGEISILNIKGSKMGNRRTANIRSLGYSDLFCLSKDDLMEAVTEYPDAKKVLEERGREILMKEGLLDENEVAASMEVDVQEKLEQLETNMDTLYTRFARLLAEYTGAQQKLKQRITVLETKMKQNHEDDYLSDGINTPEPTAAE
# T2 sequence (Q64359 whole entry): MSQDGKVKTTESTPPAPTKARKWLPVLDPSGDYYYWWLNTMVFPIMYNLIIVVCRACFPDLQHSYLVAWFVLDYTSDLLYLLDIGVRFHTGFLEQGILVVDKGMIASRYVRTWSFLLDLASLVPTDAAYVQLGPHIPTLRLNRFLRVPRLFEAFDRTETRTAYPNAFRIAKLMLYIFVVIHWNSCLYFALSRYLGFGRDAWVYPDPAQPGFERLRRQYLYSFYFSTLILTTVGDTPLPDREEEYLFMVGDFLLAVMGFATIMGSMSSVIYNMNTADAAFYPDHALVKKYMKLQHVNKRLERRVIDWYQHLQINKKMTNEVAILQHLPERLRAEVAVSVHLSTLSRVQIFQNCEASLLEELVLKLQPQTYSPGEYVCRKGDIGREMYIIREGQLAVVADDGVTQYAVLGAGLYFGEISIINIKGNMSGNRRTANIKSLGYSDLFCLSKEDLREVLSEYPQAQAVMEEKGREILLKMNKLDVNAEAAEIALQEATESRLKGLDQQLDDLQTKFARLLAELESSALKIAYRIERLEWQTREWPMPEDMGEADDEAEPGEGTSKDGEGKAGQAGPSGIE
# T2 sequence (A0A8I5ZN27 1-858 isoform A0A8I5ZN27-2): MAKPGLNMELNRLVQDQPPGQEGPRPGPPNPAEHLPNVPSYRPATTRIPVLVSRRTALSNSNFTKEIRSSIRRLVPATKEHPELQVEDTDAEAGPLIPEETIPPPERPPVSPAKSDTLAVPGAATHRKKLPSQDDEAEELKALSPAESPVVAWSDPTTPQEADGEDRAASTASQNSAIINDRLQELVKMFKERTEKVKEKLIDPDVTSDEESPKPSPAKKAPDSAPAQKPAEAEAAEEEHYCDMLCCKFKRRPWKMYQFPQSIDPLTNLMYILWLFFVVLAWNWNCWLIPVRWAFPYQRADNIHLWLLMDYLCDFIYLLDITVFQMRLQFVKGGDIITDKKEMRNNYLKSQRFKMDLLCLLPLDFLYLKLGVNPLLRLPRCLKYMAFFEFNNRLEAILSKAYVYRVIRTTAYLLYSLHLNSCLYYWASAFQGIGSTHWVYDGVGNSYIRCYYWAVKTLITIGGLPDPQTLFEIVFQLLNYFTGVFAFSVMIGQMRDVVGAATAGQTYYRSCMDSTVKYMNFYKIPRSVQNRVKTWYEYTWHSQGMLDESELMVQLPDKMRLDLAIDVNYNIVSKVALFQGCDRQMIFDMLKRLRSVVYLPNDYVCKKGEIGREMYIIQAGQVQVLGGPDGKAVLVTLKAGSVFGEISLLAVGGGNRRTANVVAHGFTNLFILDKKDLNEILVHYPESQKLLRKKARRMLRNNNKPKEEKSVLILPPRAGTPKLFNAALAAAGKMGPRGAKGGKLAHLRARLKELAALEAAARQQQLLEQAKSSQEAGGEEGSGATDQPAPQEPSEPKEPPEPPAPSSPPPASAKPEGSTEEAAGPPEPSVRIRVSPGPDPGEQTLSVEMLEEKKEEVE
# T3 sequence (Q00195 whole entry R538E, the tested form may be a part): as the sequence (Q00195 whole entry) above, with R538E counted along it
# T3 sequence (Q64359 whole entry R430E, the tested form may be a part): as the sequence (Q64359 whole entry) above, with R430E counted along it
# T3 sequence (A0A8I5ZN27 1-858 isoform A0A8I5ZN27-2 R657E): as the sequence (A0A8I5ZN27 1-858 isoform A0A8I5ZN27-2) above, with R657E counted along it
# T4 sequence (Q00195 whole entry R538E): as the sequence (Q00195 whole entry) above, with R538E counted along it
# T4 sequence (Q64359 whole entry R430E): as the sequence (Q64359 whole entry) above, with R430E counted along it
# T4 sequence (A0A8I5ZN27 1-858 isoform A0A8I5ZN27-2, stated change not applied): as the sequence (A0A8I5ZN27 1-858 isoform A0A8I5ZN27-2) above
# T1 sequence (Q00195 whole entry R538E): as the sequence (Q00195 whole entry) above, with R538E counted along it
# T1 sequence (A0A8I5ZN27 1-858 isoform A0A8I5ZN27-2, stated change not applied): as the sequence (A0A8I5ZN27 1-858 isoform A0A8I5ZN27-2) above
Substance,"ligand binding to the CNGB1b subunit (in words) (CNGA2RE:B1b; 10 μM, CNGB1b coexpressed with CNGA2RE)",Ligand binding to CNGB1b (CNGA2RE:B1b; 10 μM),"EC50 (CNGA2:A4:B1b channels; CNGA2:A4:B1b, steady-state, +10 mV, equation (1), 7-10 patches) [nM]","H (CNGA2:A4:B1b channels; Hill coefficient, CNGA2:A4:B1b, steady-state, +10 mV)",potency to open CNGA2:A4:B1b channels compared to fcAMP (CNGA2:A4:B1b channels; relative to fcAMP),Ligand binding to CNGB1b (CNGA2RE:B1b; 2 μM),"binding to the CNGB1b subunit (in words) (CNGA2RE:B1b; fHcAMP, CNGA2RE:B1b channels)",activation (CNGA2RE:A4RE:B1bRE [1]),"binding to the CNGB1b subunit (in words) (CNGA2RE:A4RE:B1b [2]; 2 μM fHcAMP, CNGA2RE:A4RE:B1b channels)","Ligand binding to CNGB1b (CNGA2RE:A4RE:B1b [2]; 2 μM, construct CNGA2RE:A4RE:B1b)","binding to the CNGB1b subunit (in words) (CNGA2RE:A4RE:B1bRE [3]; 2 μM fHcAMP, binding domain in CNGB1b also disabled)","Ligand binding to CNGB1b (CNGA2RE:A4RE:B1bRE [3]; 2 μM, construct CNGA2RE:A4RE:B1bRE)",channel activation (CNGA2RE:A4RE:B1b [4]) [%]
8-[DY-547]-AET-cAMP [fcAMP],no ligand binding,−,,,,,,,,,,,
8-[DY-547]-AHT-cAMP [fHcAMP],,,590,1.2,eight times higher potency,−,did not detectably bind,abolished,binds,+,abolished,−,3.1 ± 0.7
